# Measurements as given in patent US20230165873A1, “Methods of Use for Single Molecule Compounds Providing Multi-Target Inhibition to Treat Covid 19” (priority 2020, published 2023).
# Where two headings read alike, the source gives them in different places.
# Key:
# SARS-CoV-2 [1] = test: microbe, parasite or virus in culture; assay type: cell-based; settings: read-out: IC50 based on SARS-CoV-2 viral loads in culture supernatant
# SARS-CoV-2 [2] = test: microbe, parasite or virus in culture; assay type: cell-based; settings: read-out: IC50 based on dose response curve by cytopathic effect (CPE)
# SARS-CoV-2 [3] = test: microbe, parasite or virus in culture; assay type: cell-based; settings: for EC50: read-out: Median Effective Dose
# SARS-CoV-2 [4] = test: microbe, parasite or virus in culture; assay type: cell-based; settings: for EC50: read-out: Median Effective Dose; remark: listed apart in the source
# SARS-CoV-2 [5] = test: microbe, parasite or virus in culture; settings: for IC50: Severe acute respiratory syndrome coronavirus 2, HeLa-ACE2, read-out: IC50 inhibition of SARS-CoV-2 (viral plaques)
# SARS-CoV-2 [6] = test: SARS-CoV-2 viral load in culture supernatant (RT-QPCR), UNCN1T cells
# SARS-CoV-2 [7] = test: Cytopathic effect (CPE), CellTiter-Glo, SARS-CoV-2 infected UNCN1T cells; settings: read-out: IC50 based on dose response curve by cytopathic effect (CPE), 24 hrs post-infection
# PI3K gamma = PI3K gamma (Homo sapiens, UniProt P48736); test: PI3K gamma in vitro inhibition; assay type: biochemical
# Description: (§1) The kinase or bromodomain inhibitory activity of a compound of the invention can be determined by routine methods known to the skilled artisan without undue experimentation, or by procuring relevant analysis by a commercial vendor offering such services. […] In vivo, PI3K inhibition can be determined from target tissue biopsies by standard tissue processing in which cells are disrupted and Western Blot analysis is performed to determine the presence or absence of pAKT (substrate of PI3K) relative to a control sample. PI3K inhibition assays and BTK inhibition assays are known in the art and can be procured commercially through vendors such as Reaction Biology (Malvern, PA). The activity of a compound of the invention as an inhibitor of a bromodomain-containing protein, such as a BET protein, including BRD2, BRD3, BRD4, and/or BRDT, or an isoform or mutant thereof, may be determined in vitro, in vivo, or in a cell line. In vitro assays include assays that determine inhibition of bromodomain-containing proteins. Alternatively, inhibitor binding may be determined by running a competition experiment where a provided compound is incubated with a bromodomain-containing protein, such as a BET protein bound to known ligands, labeled or unlabeled. In vitro bromodomain inhibition assays can be performed using Alpha Screen Technology (Perkin Elmer Life and Analytical Sciences, Shelton, CT). In vivo bromodomain inhibition can be determined indirectly by evaluating the amount of a protein whose gene transcription is influenced or controlled by the bromodomain protein, for example, MYCN protein transcription is controlled by BRD4 (J.E. Delmore et al., Cell 2011, 146, 904-917; A. Puissant, Cancer Discov. 2013, 3, 308-323).
# (§2) IC50 inhibition data against the indicated targets were determined for compounds of the invention using standard in vitro assays (Tables 8 and 9).
# CDK4 cyclinD1 = CDK4 cyclinD1 (Homo sapiens, UniProt P11802); test: CDK4 cyclinD1 in vitro inhibition; assay type: biochemical
# Description: as §1, §2
# CDK6 cyclinD1 = CDK6 cyclinD1 (Homo sapiens, UniProt Q00534); test: CDK6 cyclinD1 in vitro inhibition; assay type: biochemical
# Description: as §1, §2
# mTOR = mTOR (Homo sapiens, UniProt P42345); test: mTOR in vitro inhibition; assay type: biochemical
# Description: as §1, §2
# BRD4-1 = biological target: T1, BRD4-1 (Homo sapiens, UniProt O60885); test: BRD4-1 in vitro inhibition; assay type: binding
# T1 construct: BRD4-1
# Description: as §1
# BRD4-2 = biological target: T2, BRD4-2 (Homo sapiens, UniProt O60885); test: BRD4-2 in vitro inhibition; assay type: binding
# T2 construct: BRD4-2
# Description: as §1
# PI3K alpha = PI3K alpha (Homo sapiens, UniProt P42336); test: PI3K alpha in vitro inhibition; assay type: biochemical
# Description: as §1
# PI3K delta = PI3K delta (Homo sapiens, UniProt O00329); test: PI3K delta in vitro inhibition; assay type: biochemical
# Description: as §1, §2
# Syk = Syk (Homo sapiens, UniProt P43405); test: Syk in vitro inhibition; assay type: biochemical
# Description: as §1, §2
# PI3K beta = PI3K beta (Homo sapiens, UniProt P42338); test: PI3K beta in vitro inhibition; assay type: biochemical
# Description: as §1
# [8] = test system: mice carrying the Fli1 deletion; test: Bleomycin-induced lung fibrosis in mice carrying the Fli1 deletion; assay type: in vivo; settings: 50 mg/kg on day 9, 12, 15 after intra-tracheal bleomycin 0.4 mg/kg; sacrifice day 21
# Excerpt: Bleomycin-induced lung fibrosis is the most frequently used rodent model for lung fibrosis, and inflammatory and fibrotic events similar to those seen in human pulmonary fibrosis (Am J Respir Cell Mol Biol. 2013 Aug; 49(2): 167-179; https://www.atsjournals.org/doi/full/10.1165/rcmb.2013-0094TR; PMID: 23526222). Systemic sclerosis (SSc) is manifested by vasculopathy, immune dysregulation and fibrosis of the skin and certain internal organs, especially lungs (Nat Commun. 2014; 5: 5797.; https://www.nature.com/articles/ncomms6797; PMID: 25504335). Friend leukemia integration 1 (Fli1) is a potent repressor of the type I collagen gene. […] Bleomycin was administered intra-tracheally to mice (0.4 mg/kg) and no drug was given during the inflammatory phase (8 days). […] IRS-1 is a component of the insulin signaling pathway which is involved in the increased collagen production by cells carrying the Fli1 deletion.
# BTK = BTK (Homo sapiens, UniProt Q06187); test: BTK in vitro inhibition; assay type: biochemical
# Description: as §1, §2
# BTK C481S = BTK C481S (Homo sapiens, UniProt Q06187, C481S); test: BTK C481S in vitro inhibition; assay type: biochemical
# Description: as §1, §2
# SARS-CoV-2 [9] = settings: at effective anti-viral concentrations; Hela-ACE2 cells
# [10] = Severe acute respiratory syndrome coronavirus 2, 24 h
# [11] = Severe acute respiratory syndrome coronavirus 2, 48 h
# [12] = read-out: IC50 based on SARS-CoV-2 viral loads in culture supernatant, 24 hrs post-infection
# [13] = read-out: IC50 based on SARS-CoV-2 viral loads in culture supernatant, 48 hrs post-infection
# [14] = read-out: IC50 inhibition PI3K gamma
# Chain of CDK6 cyclinD1 (Q00534 whole entry): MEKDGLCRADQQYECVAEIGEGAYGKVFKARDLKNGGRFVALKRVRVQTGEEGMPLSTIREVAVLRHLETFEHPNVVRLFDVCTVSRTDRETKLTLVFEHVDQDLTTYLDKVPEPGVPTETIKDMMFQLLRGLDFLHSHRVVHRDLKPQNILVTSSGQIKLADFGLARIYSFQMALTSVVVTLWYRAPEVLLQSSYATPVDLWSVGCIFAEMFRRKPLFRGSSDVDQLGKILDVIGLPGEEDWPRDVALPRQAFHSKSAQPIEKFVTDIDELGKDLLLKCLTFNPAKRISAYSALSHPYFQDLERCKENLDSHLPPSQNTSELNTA
# Chain of CDK6 cyclinD1 (P24385 whole entry partner): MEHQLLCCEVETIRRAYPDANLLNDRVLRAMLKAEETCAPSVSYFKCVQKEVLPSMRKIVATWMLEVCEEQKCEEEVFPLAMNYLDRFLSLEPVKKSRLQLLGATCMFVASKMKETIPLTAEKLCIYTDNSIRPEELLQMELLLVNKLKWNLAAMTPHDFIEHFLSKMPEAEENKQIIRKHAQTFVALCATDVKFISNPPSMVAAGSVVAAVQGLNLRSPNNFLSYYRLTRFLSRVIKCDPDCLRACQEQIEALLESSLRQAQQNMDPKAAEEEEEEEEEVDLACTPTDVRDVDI
# Chain of PI3K gamma (P48736 whole entry): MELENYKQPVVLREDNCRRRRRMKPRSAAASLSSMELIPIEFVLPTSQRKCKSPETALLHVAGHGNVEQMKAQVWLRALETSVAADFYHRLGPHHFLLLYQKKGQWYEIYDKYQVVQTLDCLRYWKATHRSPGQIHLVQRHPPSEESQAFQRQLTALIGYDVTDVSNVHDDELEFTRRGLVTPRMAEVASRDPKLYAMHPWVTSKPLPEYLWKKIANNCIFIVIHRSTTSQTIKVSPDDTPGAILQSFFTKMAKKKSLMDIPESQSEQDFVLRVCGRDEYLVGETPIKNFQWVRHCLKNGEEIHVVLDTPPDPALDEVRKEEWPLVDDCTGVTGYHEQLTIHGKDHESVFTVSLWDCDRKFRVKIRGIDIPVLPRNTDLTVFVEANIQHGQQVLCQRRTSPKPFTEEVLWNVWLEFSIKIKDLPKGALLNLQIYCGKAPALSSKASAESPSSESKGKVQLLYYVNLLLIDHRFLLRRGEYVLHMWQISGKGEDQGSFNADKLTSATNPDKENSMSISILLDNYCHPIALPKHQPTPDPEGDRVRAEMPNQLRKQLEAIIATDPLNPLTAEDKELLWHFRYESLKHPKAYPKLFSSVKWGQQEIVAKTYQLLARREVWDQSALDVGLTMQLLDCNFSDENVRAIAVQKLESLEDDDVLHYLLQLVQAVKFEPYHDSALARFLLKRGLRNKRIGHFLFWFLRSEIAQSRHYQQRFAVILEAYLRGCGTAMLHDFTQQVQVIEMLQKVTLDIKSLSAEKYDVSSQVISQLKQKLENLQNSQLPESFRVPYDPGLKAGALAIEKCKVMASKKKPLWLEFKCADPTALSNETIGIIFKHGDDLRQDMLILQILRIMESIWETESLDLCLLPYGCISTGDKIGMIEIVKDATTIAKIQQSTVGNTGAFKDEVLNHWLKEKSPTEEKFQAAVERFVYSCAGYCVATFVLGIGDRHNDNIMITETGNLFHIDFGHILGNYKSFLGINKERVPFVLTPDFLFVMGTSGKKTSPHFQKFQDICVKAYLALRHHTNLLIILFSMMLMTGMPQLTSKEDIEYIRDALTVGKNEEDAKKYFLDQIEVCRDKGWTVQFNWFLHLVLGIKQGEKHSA
# Chain of CDK4 cyclinD1 (P11802 whole entry): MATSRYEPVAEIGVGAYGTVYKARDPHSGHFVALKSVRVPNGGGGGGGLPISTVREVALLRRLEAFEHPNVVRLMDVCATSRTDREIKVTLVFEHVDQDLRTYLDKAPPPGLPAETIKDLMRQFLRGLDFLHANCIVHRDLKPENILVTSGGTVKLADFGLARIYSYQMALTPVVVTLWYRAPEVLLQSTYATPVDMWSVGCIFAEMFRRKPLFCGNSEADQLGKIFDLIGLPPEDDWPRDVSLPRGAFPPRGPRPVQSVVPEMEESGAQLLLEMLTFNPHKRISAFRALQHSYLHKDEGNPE
# Chain of CDK4 cyclinD1 (P24385 whole entry partner): as the sequence (P24385 whole entry partner) above
# Chain of PI3K alpha (P42336 whole entry): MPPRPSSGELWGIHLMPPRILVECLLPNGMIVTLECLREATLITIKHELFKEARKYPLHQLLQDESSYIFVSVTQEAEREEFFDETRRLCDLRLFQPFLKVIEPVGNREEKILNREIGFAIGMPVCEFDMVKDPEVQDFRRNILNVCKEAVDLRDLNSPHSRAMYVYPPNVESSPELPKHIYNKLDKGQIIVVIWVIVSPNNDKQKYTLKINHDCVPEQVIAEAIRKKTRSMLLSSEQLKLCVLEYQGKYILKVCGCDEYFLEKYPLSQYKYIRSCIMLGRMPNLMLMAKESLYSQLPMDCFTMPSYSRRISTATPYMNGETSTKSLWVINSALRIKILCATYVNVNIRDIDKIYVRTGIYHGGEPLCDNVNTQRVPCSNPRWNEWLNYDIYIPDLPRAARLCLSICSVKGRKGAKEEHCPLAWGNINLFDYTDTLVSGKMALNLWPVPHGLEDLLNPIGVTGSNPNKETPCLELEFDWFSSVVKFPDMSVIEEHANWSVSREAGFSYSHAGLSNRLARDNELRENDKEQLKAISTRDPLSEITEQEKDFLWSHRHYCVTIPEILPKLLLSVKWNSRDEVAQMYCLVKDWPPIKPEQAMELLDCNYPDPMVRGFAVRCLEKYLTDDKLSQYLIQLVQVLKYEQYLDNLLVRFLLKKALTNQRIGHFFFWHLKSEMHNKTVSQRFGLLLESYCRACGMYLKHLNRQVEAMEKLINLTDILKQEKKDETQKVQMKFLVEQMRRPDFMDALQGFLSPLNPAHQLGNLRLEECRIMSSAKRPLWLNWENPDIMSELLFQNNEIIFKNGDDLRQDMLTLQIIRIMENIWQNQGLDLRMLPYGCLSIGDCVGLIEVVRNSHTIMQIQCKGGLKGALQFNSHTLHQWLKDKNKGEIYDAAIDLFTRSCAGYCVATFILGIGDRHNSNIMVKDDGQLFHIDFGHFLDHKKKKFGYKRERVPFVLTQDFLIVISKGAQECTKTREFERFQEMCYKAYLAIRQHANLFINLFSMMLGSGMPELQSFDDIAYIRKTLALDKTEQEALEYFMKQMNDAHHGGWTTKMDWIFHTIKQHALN
# Chain of PI3K alpha (P27986 whole entry partner): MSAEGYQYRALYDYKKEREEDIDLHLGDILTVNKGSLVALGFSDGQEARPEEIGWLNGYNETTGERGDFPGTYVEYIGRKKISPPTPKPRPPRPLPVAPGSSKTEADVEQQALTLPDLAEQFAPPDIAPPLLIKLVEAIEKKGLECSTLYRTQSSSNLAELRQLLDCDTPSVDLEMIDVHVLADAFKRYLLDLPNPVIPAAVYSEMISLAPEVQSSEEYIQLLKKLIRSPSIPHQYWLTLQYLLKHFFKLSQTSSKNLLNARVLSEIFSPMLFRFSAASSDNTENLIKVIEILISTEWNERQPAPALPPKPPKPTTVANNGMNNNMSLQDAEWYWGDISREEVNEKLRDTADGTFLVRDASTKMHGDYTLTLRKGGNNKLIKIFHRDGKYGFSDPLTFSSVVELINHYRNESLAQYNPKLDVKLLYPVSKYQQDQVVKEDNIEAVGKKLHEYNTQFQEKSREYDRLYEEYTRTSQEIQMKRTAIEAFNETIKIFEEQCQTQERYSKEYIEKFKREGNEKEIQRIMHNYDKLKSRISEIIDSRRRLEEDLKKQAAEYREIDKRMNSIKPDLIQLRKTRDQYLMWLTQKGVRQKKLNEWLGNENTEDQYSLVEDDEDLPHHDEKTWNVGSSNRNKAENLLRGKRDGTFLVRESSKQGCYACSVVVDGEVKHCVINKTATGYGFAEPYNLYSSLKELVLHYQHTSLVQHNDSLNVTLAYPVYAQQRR
# Chain of PI3K delta (O00329 whole entry): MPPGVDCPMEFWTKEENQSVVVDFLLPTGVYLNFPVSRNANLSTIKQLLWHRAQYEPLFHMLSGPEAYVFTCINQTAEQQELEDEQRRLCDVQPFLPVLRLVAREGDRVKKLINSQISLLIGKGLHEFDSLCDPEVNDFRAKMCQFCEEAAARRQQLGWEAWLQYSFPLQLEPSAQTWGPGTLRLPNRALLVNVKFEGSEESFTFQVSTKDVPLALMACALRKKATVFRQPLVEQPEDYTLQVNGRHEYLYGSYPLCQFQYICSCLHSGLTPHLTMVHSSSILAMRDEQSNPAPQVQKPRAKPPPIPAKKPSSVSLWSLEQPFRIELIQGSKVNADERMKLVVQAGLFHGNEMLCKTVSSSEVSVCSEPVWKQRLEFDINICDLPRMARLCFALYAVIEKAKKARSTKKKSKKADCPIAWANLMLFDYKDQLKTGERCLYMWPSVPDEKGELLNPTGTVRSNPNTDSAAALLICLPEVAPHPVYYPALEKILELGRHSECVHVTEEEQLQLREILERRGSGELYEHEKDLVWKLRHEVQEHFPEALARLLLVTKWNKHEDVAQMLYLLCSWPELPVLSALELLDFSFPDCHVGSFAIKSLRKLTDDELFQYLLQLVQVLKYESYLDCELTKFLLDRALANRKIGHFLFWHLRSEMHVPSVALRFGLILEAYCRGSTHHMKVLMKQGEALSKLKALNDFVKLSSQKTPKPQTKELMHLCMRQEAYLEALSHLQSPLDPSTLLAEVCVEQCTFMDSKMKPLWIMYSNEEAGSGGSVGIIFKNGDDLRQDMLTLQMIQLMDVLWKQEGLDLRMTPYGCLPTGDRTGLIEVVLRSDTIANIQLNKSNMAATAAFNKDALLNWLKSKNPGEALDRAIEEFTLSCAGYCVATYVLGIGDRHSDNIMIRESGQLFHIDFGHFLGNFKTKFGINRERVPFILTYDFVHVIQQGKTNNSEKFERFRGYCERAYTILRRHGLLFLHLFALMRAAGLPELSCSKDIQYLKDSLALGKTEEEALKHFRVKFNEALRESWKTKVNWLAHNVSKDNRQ
# Chain of PI3K delta (P27986 whole entry partner): as the sequence (P27986 whole entry partner) above
Structure (SMILES),IC50 (PI3K gamma; [14]),IC50 (CDK4 cyclinD1),IC50 (CDK6 cyclinD1),IC50 (mTOR),IC50 (BRD4-1),IC50 (BRD4-2),IC50 (PI3K alpha),IC50 (PI3K delta),IC50 (Syk),other results
"CCC(CC)COC(=O)[C@H](C)N[P@](=O)(OC[C@H]1O[C@@](C#N)(c2ccc3c(N)ncnn23)[C@H](O)[C@@H]1O)Oc1ccccc1 [Remdesivir, reference compound]",,,,,,,,,,"IC50 (SARS-CoV-2 [1]; [10]): 1030 nM; IC50 (SARS-CoV-2 [1]; [11]): 760 nM; IC50 (SARS-CoV-2 [2]; [10]): 2240 nM; IC50 (SARS-CoV-2 [2]; [11]): 4600 nM; EC50 (SARS-CoV-2 [3]; Severe acute respiratory syndrome coronavirus 2, Vero, 24 h): 533 nM; dose reduction index (DRI) (SARS-CoV-2 [3]; VERO-STAT1 KO cells at Fa 0.5): 2.35; EC50 (SARS-CoV-2 [4]; [10]): 272 nM; dose reduction index (DRI) (SARS-CoV-2 [4]; UNCN1T cells): 3.75; IC50 (SARS-CoV-2 [5]): 100 nM; IC50 (SARS-CoV-2 [6]; [12]): 1060 nM; IC50 (SARS-CoV-2 [6]; [13]): 2750 nM; IC50 (SARS-CoV-2 [7]): 220 nM"
CN(C)C(=O)c1cc2cnc(Nc3ccc(-c4csc5c(=O)cc(N6CCOCC6)oc45)cc3)nc2n1C1CCCC1 [Compound 6],1000 to 10000 nM,< 500 nM,< 500 nM,1000 to 10000 nM,,,,,,
Cc1nn(-c2ccnc(Nc3ccc(-c4csc5c(=O)cc(N6CCOCC6)oc45)cc3)n2)cc1CN(C)C [Compound 57],10000 to 45000 nM,< 500 nM,< 500 nM,,1000 to 10000 nM,1000 to 10000 nM,500 to 1000 nM,500 to 1000 nM,< 500 nM,
Cc1nn(-c2ccnc(Nc3ccc(-c4csc5c(=O)cc(N6CCOCC6)oc45)cc3)n2)cc1CN1CCOCC1 [Compound 58],10000 to 45000 nM,> 45000 nM,> 45000 nM,,1000 to 10000 nM,1000 to 10000 nM,500 to 1000 nM,< 500 nM,> 45000 nM,
Cc1nn(-c2ccnc(Nc3ccc(-c4csc5c(=O)cc(N6CCOCC6)oc45)cc3)n2)cc1CN1CC(O)C1 [Compound 52],10000 to 45000 nM,10000 to 45000 nM,< 500 nM,,> 45000 nM,> 45000 nM,500 to 1000 nM,1000 to 10000 nM,< 500 nM,
CN(C)C(=O)c1cc2cnc(Nc3ccc(-c4csc5c(=O)cc(N6CCOCC6)oc45)nc3)nc2n1C1CCCC1 [Compound 7],10000 to 45000 nM,< 500 nM,< 500 nM,1000 to 10000 nM,10000 to 45000 nM,1000 to 10000 nM,1000 to 10000 nM,,,IC50 (PI3K beta): 10000 to 45000 nM
Cc1nn(-c2ccnc(Nc3ccc(-c4csc5c(=O)cc(N6CCOCC6)oc45)cc3)n2)cc1CN1CCC1 [Compound 54],1000 to 10000 nM,> 45000 nM,> 45000 nM,,1000 to 10000 nM,1000 to 10000 nM,< 500 nM,< 500 nM,< 500 nM,
O=c1cc(N2CCOCC2)oc2c(-c3ccc4c(c3)OCCO4)csc12 [Compound 0],,,,< 500 nM,< 500 nM,500 to 1000 nM,,,,"prevention of development of fibrosis (Masson Trichrome staining, tissue collagen content, Ashcroft score) [8]: remarkably effective in preventing the development of fibrosis; IC50 (SARS-CoV-2 [1]; [10]): 1020 nM; IC50 (SARS-CoV-2 [1]; [11]): 3220 nM; IC50 (SARS-CoV-2 [2]; [10]): 1800 nM; IC50 (SARS-CoV-2 [2]; [11]): 4400 nM; EC50 (SARS-CoV-2 [3]; Severe acute respiratory syndrome coronavirus 2, VERO STAT1 KO Cells, 24 hours post-infection): 2620 nM; EC50 (SARS-CoV-2 [4]; Severe acute respiratory syndrome coronavirus 2, UNCN1T Cells, 24 hours post-infection): 1840 nM; IC50 (PI3K beta): < 500 nM; IC50 (PI3K gamma; IC50 inhibition PI3K gamma): < 500 nM; IC50 (BTK): 10000 to 45000 nM; IC50 (BTK C481S): 10000 to 45000 nM; cellular cytotoxicity (SARS-CoV-2 [9]): no cellular cytotoxicity is noted; inhibition at 2.4 µM (SARS-CoV-2 [5]; Severe acute respiratory syndrome coronavirus 2, HeLa-ACE2): 94%; IC50 (SARS-CoV-2 [5]): 900 nM; IC50 (SARS-CoV-2 [6]; [12]): 1520 nM; IC50 (SARS-CoV-2 [6]; [13]): 1580 nM; IC50 (SARS-CoV-2 [7]): 250 nM"
